Results: a melting point compilation (Tetko et al.; mined from patent text by program, amines drawn as free bases though some values may be those of a salt)

melting point [°C]	Compound
237 to 239	Cc1cccc(CNc2c(NC(C)(C)C)c(=O)c2=O)c1C
220 to 222	Cc1nc(NC(CO)C(C)SCc2ccccc2)c2nc(-c3ccccc3)cc-2[nH]1 (stereo not given)
178	O=C(N[C@H]1CC[C@H](CCN2CCN(c3nccc4c3CCO4)CC2)CC1)C1(O)CCC1
250	CC(=O)Nc1c(S(N)(=O)=O)cc(C(=O)O)c(Nc2ccccc2)c1NCc1ccco1
50	CCNc1nc(C(C)C)nc(Cl)c1[N+](=O)[O-]
227 to 229	CC1(C)CC(=O)C2=C(C1)NC1=C(C(=O)CC(C)(C)C1)C2c1cccc(-c2ccccc2)c1
130 to 135	CN(C)CCCN=C1CC(c2ccc(C(F)(F)F)cc2)Cc2c1c(=O)c1cc(Cl)ccc1n2O (stereo not given)
120 to 121	Cn1nc(CNC(=O)Nc2ccccc2)nc1NCCCOc1cccc(CN2CCCCC2)c1
106 to 110	COC(=O)CCCc1cc2nc(Cl)ccc2n1S(=O)(=O)c1ccc2c(c1)OCCN2C
151 to 152	CC(C)(CCCOc1ccccc1)C(=O)O
217 to 222	COC(=O)CCc1cc2cc(Cl)ccc2n1S(=O)(=O)c1ccc2nc(N)sc2c1
189 to 191	CC(C)n1nc(-c2ncc(N)nc2-c2ccccc2Br)ccc1=O
103	CC1(C(Cl)(Cl)Cl)C=CC(=O)C=C1
97 to 98	CCOC(=O)c1c(C(F)(F)F)nc(C(F)(F)Cl)c(C(=O)OC)c1NN(C)C
137 to 139	CC(O)c1cccc(S(N)(=O)=O)c1 (stereo not given)
87.5 to 90	OCCCc1ccc(-c2ccc(CCCO)c(C(F)(F)F)c2)cc1C(F)(F)F
42 to 43	CCCCC#CCCOc1cc(C=O)ccc1OC
59.5 to 60	CC(=O)c1c(N(C)C)nn2ccccc12
120 to 121	Cc1c(C)c2c(c(C)c1OCc1ccccc1)CC(C)(CN1CCN(c3ccccc3)CC1)O2 (stereo not given)
137	Nc1cc(-c2nc3ccccn3c2Br)c(F)cc1F
101 to 102	CCOC(=O)CC1CN=C(c2cc3cccc(N(C)S(=O)(=O)c4cccs4)c3[nH]2)S1 (stereo not given)
89 to 91	CCN(CC)C(=O)c1ccc(C)c(-c2nc(NCCNC(C)C)nc3c2CNC(=O)N3c2c(F)cccc2F)c1
298 to 302	Oc1nc2cc(F)ccc2n2c(C(F)(F)F)nnc12

melting point [°C]	Compound
232 to 236	Clc1cc(NC23CC4CC(CC(C4)C2)C3)nc(NC23CC4CC(CC(C4)C2)C3)n1
211 to 213	CC1=NN=C(c2ccc(NC(=O)CN(C)C)cc2)c2cc3c(cc2C1)OCO3
226	CSc1nc(O)c(-c2ccc(C)cc2)c(O)n1
144 to 146	CCC(=O)NCC[C@@H]1CCc2ccc(O)c(CCO)c21
159 to 160	Cc1c(NC(=O)c2ccc(OCc3ccc(F)cc3)cc2)ccc2cc(CN3CCCCC3)cnc12
110	CC(=O)OC1CSC(OC(=N)C(Cl)(Cl)Cl)C(OC(C)=O)C1OC(C)=O (stereo not given)
133 to 134	COC(=O)c1ccc(OCC(O)c2ccc3c(c2)C(C)(C)CCC3(C)C)cc1O (stereo not given)
119 to 120	COc1ccc(C=CC(=O)c2c(OC)cc(OC)cc2OC(=O)c2ccc(OC)cc2OC)cc1
156 to 157	CS(=O)(=O)Nc1ccc(C(=O)C2CCN(CCc3cnc4ccccc4n3)CC2)cc1
162 to 168	Cn1ccn(Cc2ccc([N+](=O)[O-])cc2)c1=S
71 to 77	COC(=O)C1=C(C)NC(C)=C(C(=O)OCCN2CCN(C(c3ccccc3)c3ccccc3)CC2)C1c1ccco1 (stereo not given)
54 to 56	CCCOc1ccc([N+](=O)[O-])nc1C
250 to 251	c1ccc2c(c1)c(-c1nnn[nH]1)cc1nnnn12
110	CCc1sc2c(c1S(=O)(=O)c1ccc(OCCCN(C)C(C)c3ccc(OC)c(OC)c3)cc1)CN(Cc1ccccc1Cl)CC2 (stereo not given)
210	CCCCc1cc2c(Nc3ccc4[nH]ccc4c3)c(C#N)cnc2s1
108 to 110	NS(=O)(=O)Oc1c(Cl)cccc1Cl
131 to 133	CN(C)C(=O)c1cnn(-c2ccc(Br)cc2)c1C#N
40 to 41	CCOC(=O)/C=C/c1cccc(C(F)(F)F)c1
68	COc1cccc(N(C(=O)c2ccc(-c3cccc(C)c3)s2)C2CC2)c1
183	CSCc1c(C(=O)NN2CCCCC2)nn(-c2ccc(Cl)cc2Cl)c1-c1ccc(Cl)cc1
167 to 168	CCCn1c(=O)nc(SC)c2c1ncn2COCc1ccccc1
164 to 165	CCOC(=O)c1c(CCCn2ccnc2)nc2cc(OC)c(OC)cc2c1-c1ccc(OC)c(OC)c1
56 to 61	CC(C)C[C@H](NCc1ccc(OC(C)(C)C)cc1)C(=O)N1CCN(C(c2ccc(F)cc2)c2ccc(F)cc2)CC1

melting point [°C]	Compound
180	COc1ccc(-c2nc(-c3nccn3Cc3ccccc3)[nH]c2-c2ccc(OC)cc2)cc1
185 to 186	O=c1ccn(CC(O)CO)c(Cc2ccccc2)c1O (stereo not given)
125 to 127	O=C(NC(=O)C(c1ccccc1)c1ccccc1)OCC(F)(F)F
245	O=C(Nc1ccc2[nH]c(=O)n(CCCCN3CC=C(c4ccccc4)CC3)c(=O)c2c1)C(F)(F)F
86 to 88	Cc1cc(N)ccc1-c1ccc(-c2ccc(N)cc2C)s1
235 to 238	COC1C2=C3C(=CN1OC)OCCC3CCC2 (stereo not given)
123	NC(=O)[C@H]1CN2C(=O)N(c3cc(Cl)cc(Cl)c3)C(=O)[C@]2(Cc2ccc(OC(F)(F)F)cc2)C1
170	O=C(O)C#Cc1ccc(-c2ccccc2)cc1
167 to 169	Clc1ccc(C(c2ccccc2)N2CCN(c3nc4cccc5c4n3CCC5)CC2)cc1 (stereo not given)
139 to 142	COC(=O)[C@H](Cc1ccc(O[Si](C)(C)C(C)(C)C)cc1)NC(=O)Nc1n[nH]c(=S)s1
118 to 119	COc1c(Cl)nc(SC)nc1NN
142	CC(CCC(F)(F)C(C)(C)O)C1CCC2C3CCC4CC(O)CCC4(C)C3CCC12C (stereo not given)
88 to 90	Cc1ccc(CNc2ccc(Cl)cc2Cl)c(C)c1
186	CCc1ccc(-c2oc3cccc4c3c2C=CC4=O)cc1
197 to 198	CC(C)COC(=O)c1ccc2nc(N)n(S(=O)(=O)N(C)C)c2c1
135	O=S(=O)(c1ccc(F)cc1)N1CCCC1c1ccsc1 (racemic)
167 to 174	C=C1CCC2(c3c[nH]cn3)Cc3ccccc3C12 (stereo not given)
108 to 109	COc1cc(COc2ncccc2CC#N)ccc1OCc1nc(-c2ccccc2)oc1C
124 to 126	Cc1c(F)c(N2CCC(N)C2)c(Cl)c2c1c(=O)c(C(=O)O)cn2C1CC1 (stereo not given)
70 to 75	CCOC(=O)CSc1nc(Cl)cc(NCc2ccc(F)cc2)n1
180 to 182	COc1c(Cl)ccc(-c2cc(N)c(Cl)c(C(=O)NOC3C=CCCC3)n2)c1F (stereo not given)
151 to 152	Cc1c(NC(=O)c2ccc(OCc3cccc(F)c3)cc2)ccc2cc(CN3CCCC3)cnc12
92 to 93	COc1ccc2c(n1)c(CCNC(C)=O)c1n2CCCO1

Compound	melting point [°C]
Cc1ccc(F)cc1-n1c(CF)nc2ccc(N)cc2c1=O	174 to 176
